ChEMBL document CHEMBL3870314, “Design, synthesis, anticancer, antimicrobial activities and molecular docking studies of theophylline containing acetylenes and theophylline containing 1,2,3-triazoles with variant nucleoside derivatives” (Eur J Med Chem, 2016)
Converted amounts (≈) assume the structure as drawn.

Columns and labels:
Bacillus cereus = test: Antimicrobial activity against Bacillus cereus ATCC 10876 incubated overnight by two-fold serial dilution method; format: functional
Pseudomonas aeruginosa = test: Antimicrobial activity against Pseudomonas aeruginosa ATCC 10145 incubated overnight by two-fold serial dilution method; format: functional
[1] = Cytotoxicity against human A375 cells after 48 hrs by MTT assay; format: functional, cell-based; settings: A-375, 48 h
[2] = Cytotoxicity against human HT-29 cells after 48 hrs by MTT assay; format: functional, cell-based; settings: HT-29, 48 h
[3] = Cytotoxicity against human A549 cells after 48 hrs by MTT assay; format: functional, cell-based; settings: A549, 48 h
Staphylococcus aureus = test: Antimicrobial activity against Staphylococcus aureus ATCC 25923 incubated overnight by two-fold serial dilution method; format: functional
[4] = Cytotoxicity against human MCF7 cells after 48 hrs by MTT assay; format: functional, cell-based; settings: MCF7, 48 h

Row | SMILES | MIC (Bacillus cereus) [µg/mL] | MIC (Pseudomonas aeruginosa) [µg/mL] | IC50 [1] [µM] | IC50 [2] [µM] | IC50 [3] [µM] | MIC (Staphylococcus aureus) [µg/mL] | IC50 [4] [µM]
1 | C#CCn1cnc2c1c(=O)n(C)c(=O)n2C | 0.125 (≈ 0.573 µM) | 0.125 (≈ 0.573 µM) | 153 | 158 | 152 | 0.0625 (≈ 0.286 µM) | 103
2 | Cn1c(=O)c2c(ncn2CC(=O)OCCCc2cn(CC3OC(n4ccc(=O)[nH]c4=O)C4OC(C)(C)OC34)nn2)n(C)c1=O (stereo unspecified) | 0.0312 (≈ 0.0509 µM) | 0.0312 (≈ 0.0509 µM) | 8.23 | 12.4 | 14.3 | 0.125 (≈ 0.204 µM) | 30.6
3 | CCn1c(=O)ccn(C2OC(Cn3cc(COC(=O)CNC(=O)Cn4cnc5c4c(=O)n(C)c(=O)n5C)nn3)C(O)C2O)c1=O (stereo unspecified) | 0.125 (≈ 0.198 µM) | 0.0625 (≈ 0.0991 µM) | 5.81 | 2.9 | 3.57 | 0.0625 (≈ 0.0991 µM) | 2.1
4 | Cn1c(=O)c2c(ncn2CCCc2cn(CC3OC(n4ccc(=O)[nH]c4=O)C4OC(C)(C)OC34)nn2)n(C)c1=O (stereo unspecified) | 0.0156 (≈ 0.0281 µM) | 0.0625 (≈ 0.113 µM) | 9.4 | 7.45 | 15.4 | 0.0625 (≈ 0.113 µM) | 34.2
5 | CCn1c(=O)ccn(C2OC(Cn3cc(COC(=O)C(C)NC(=O)C(C)n4cnc5c4c(=O)n(C)c(=O)n5C)nn3)C(O)C2O)c1=O (stereo unspecified) | 0.0312 (≈ 0.0474 µM) | 0.0625 (≈ 0.0949 µM) | 52.3 | 2.71 | 1.56 | 0.0312 (≈ 0.0474 µM) | 3.8
6 | Cn1c(=O)c2c(ncn2CC(=O)NCc2cn(CC3OC(n4ccc(=O)[nH]c4=O)C4OC(C)(C)OC34)nn2)n(C)c1=O (stereo unspecified) | 0.125 (≈ 0.214 µM) | 0.125 (≈ 0.214 µM) | 58.2 | 58.2 | 53.9 | 0.0312 (≈ 0.0535 µM) | 2.14
7 | Cn1c(=O)c2c(ncn2Cc2cn(CC3OC(n4ccc(=O)[nH]c4=O)C4OC(C)(C)OC34)nn2)n(C)c1=O (stereo unspecified) | 0.0312 (≈ 0.0592 µM) | 0.0312 (≈ 0.0592 µM) | 54.2 | 58.2 | 8.59 | 0.5 (≈ 0.948 µM) | 10.4
8 | Cn1c(=O)c2c(ncn2CC(=O)OCc2cn(CC3OC(n4ccc(=O)[nH]c4=O)C4OC(C)(C)OC34)nn2)n(C)c1=O (stereo unspecified) | 0.125 (≈ 0.213 µM) | 0.0625 (≈ 0.107 µM) | 56.2 | 6.2 | 3.59 | 0.0312 (≈ 0.0534 µM) | 23.6
9 | CCn1c(=O)ccn(C2OC(Cn3cc(COC(=O)C(C)n4cnc5c4c(=O)n(C)c(=O)n5C)nn3)C(O)C2O)c1=O (stereo unspecified) | 0.0625 (≈ 0.106 µM) | 0.0312 (≈ 0.0532 µM) | 68.4 | 62.8 | 2.89 | 0.0156 (≈ 0.0266 µM) | 2.13
10 | Cn1c(=O)c2c(ncn2CC(=O)NCC(=O)OCc2cn(CC3OC(n4ccc(=O)[nH]c4=O)C4OC(C)(C)OC34)nn2)n(C)c1=O (stereo unspecified) | 0.0156 (≈ 0.0243 µM) | 0.125 (≈ 0.195 µM) | 59.8 | 59.3 | 5.67 | 0.0312 (≈ 0.0486 µM) | 12.6
11 | C#CCCCn1cnc2c1c(=O)n(C)c(=O)n2C | 0.125 (≈ 0.508 µM) | 0.125 (≈ 0.508 µM) | 156 | 160 | 55.4 | 0.0312 (≈ 0.127 µM) | 34.2
12 | Cn1c(=O)c2c(ncn2CC(=O)OCCc2cn(CC3OC(n4ccc(=O)[nH]c4=O)C4OC(C)(C)OC34)nn2)n(C)c1=O (stereo unspecified) | – | – | 54.2 | 100 | 7.39 | – | 2.4
13 | CCn1c(=O)ccn(C2OC(Cn3cc(COC(=O)Cn4cnc5c4c(=O)n(C)c(=O)n5C)nn3)C(OC)C2OC)c1=O (stereo unspecified) | – | – | 62.8 | 58.8 | 56.8 | – | 2.67
14 | CCn1c(=O)ccn(C2OC(Cn3cc(COC(=O)Cn4cnc5c4c(=O)n(C)c(=O)n5C)nn3)C(O)C2O)c1=O (stereo unspecified) | 0.0625 (≈ 0.109 µM) | 0.0625 (≈ 0.109 µM) | 4.89 | 2.19 | 2.56 | 0.0625 (≈ 0.109 µM) | 1.89
15 | C#CCCCOC(=O)Cn1cnc2c1c(=O)n(C)c(=O)n2C | 0.0625 (≈ 0.205 µM) | 0.0625 (≈ 0.205 µM) | 158 | 36.6 | 56.8 | 0.5 (≈ 1.64 µM) | 162
16 | C#CCCOC(=O)Cn1cnc2c1c(=O)n(C)c(=O)n2C | 0.125 (≈ 0.431 µM) | 0.0625 (≈ 0.215 µM) | 159 | 152 | 104 | 0.0625 (≈ 0.215 µM) | 56.3
17 | C#CCNC(=O)Cn1cnc2c1c(=O)n(C)c(=O)n2C | 0.0625 (≈ 0.227 µM) | 0.0625 (≈ 0.227 µM) | 28.2 | 19.4 | 114 | 0.0156 (≈ 0.0567 µM) | 157
18 | C#CCOC(=O)Cn1cnc2c1c(=O)n(C)c(=O)n2C | 0.125 (≈ 0.452 µM) | 0.125 (≈ 0.452 µM) | 33.6 | 68.3 | 156 | 0.0312 (≈ 0.113 µM) | 33.9
19 | CCn1c(=O)ccn(C2OC(Cn3cc(COC(=O)CNC(=O)Cn4cnc5c4c(=O)n(C)c(=O)n5C)nn3)C(OC)C2OC)c1=O (stereo unspecified) | – | – | 77.4 | 74.3 | 52 | – | 59.8
20 | O=C(O)c1cn(C2CC2)c2cc(N3CCNCC3)c(F)cc2c1=O [CIPROFLOXACIN] | 0.0156 (≈ 0.0471 µM) | 0.0625 (≈ 0.189 µM) | – | – | – | 0.0312 (≈ 0.0943 µM) | –
21 | COc1ccc(/C=C\c2cc(OC)c(OC)c(OC)c2)cc1O [COMBRETASTATIN A4] | – | – | 0.21 | 0.93 | 0.11 | – | 0.18
